# Test results taken from US11944616B2 (INSTITUT NATIONAL DE LA SANTE ET DE LA RECHERCHE MEDICAL …, priority 2016, dated 2024).
# Where two headings read alike, the source gives them in different places.
# Key:
# NMDAR = NMDAR blocking activity using patch-clamp (whole-cell voltage clamp recordings from rat hippocampal neurons); format: cell-based; details: currents evoked by 100 μM NMDA and 20 μM D-serine, clamped at −60 mV
# [1] = In vivo brain penetration measurement (brain/plasma ratio Kp"brain") in rat; details: for Kp at 3.45 h: brain (without cerebellum) and plasma, male Sprague-Dawley rat, 3.45 h constant-rate intravenous infusion, 4 mg/kg, mean of 3 rats ± standard deviation, read-out: Kp"brain" (total brain/plasma concentration ratio at steady state); for CNS / BBB penetration (in words): rat, conclusion from Kp"brain" values
# Method: The femoral vein of male Sprague-Dawley rats (CRL) weighing around 250 g was surgically catheterized at least 72 hours prior to the experiment. 3 animals were performed for each compound tested. The drug was administered as 3.45 h constant-rate intravenous infusion to approach steady state, using a flow rate of 0.8 mL/h, corresponding to dosage of 4 mg/kg (1.067 mg/kg/h, i.e. 1 mg/rat of ˜250 g). The vehicle used was saline.
# At the end of the infusion, the rats were anesthetized by inhalation of isoflurane, and blood was collected in a heparinized tube from the abdominal aorta, followed by immediate rinsing of the bloodstream for 2 minutes with saline at a rate of 15 mL/min using a peristaltic pump and left intraventricle cannula (flowing via right atrium). The brain (without cerebellum) was removed, and transferred in a tube and homogenized in two volumes of deionized water using a tissue homogenizer (Precellys24). All samples were stored at −20° C. until analysis. Plasma and brain homogenate sample preparation was performed using solid phase extraction on OASIS® WCX (Waters) and compounds were quantified by reversed phase liquid chromatography and positive electrospray ionization and multiple reaction monitoring mass spectrometry (LC-MS/MS).
# This parameter is defined as the ratio of concentrations in brain and blood, Kp“brain” (Cbrain/Cplasma) or log(BB). Log(BB) is the logarithm of the ratio of the steady-state total concentration of a compound in the brain to that in the blood/plasma, log(BB)=log(Cbrain/Cplasma). This parameter depends upon the passive diffusion characteristics, the implication of membrane transporters at the BBB level and the relative drug binding affinity differences between the plasma proteins and brain tissue.
Compound,melting point,other results
CCCCCC[N@+]1(C)[C@H]2Cc3ccccc3[C@]1(C)c1ccccc12,200 to 203 °C,–
CCC[N@@+]1(CCO)[C@@H]2Cc3ccccc3[C@@]1(C)c1ccccc12,221 to 222 °C,–
CCC[N@+]1(C)[C@H]2Cc3ccccc3[C@]1(C)c1ccccc12,214 to 217 °C,–
CC[N@@+]1(CCO)[C@H]2Cc3ccccc3[C@]1(C)c1ccccc12 (racemic) [Compound No 27],205 to 208 °C,IC50 (NMDAR; read-out: IC50): 360 nM
COCC[N@+]1(C)[C@@H]2Cc3ccccc3[C@@]1(C)c1ccccc12,162 to 163 °C,–
CC[N+]1(CC)[C@@H]2Cc3ccccc3[C@@]1(C)c1ccccc12,218 to 219 °C,–
C[C@@]12c3ccccc3C[C@@H](c3ccccc31)[N+]2(C)C [Compound No 1],270 to 280 °C,Kp at 3.45 h [1]: 0.3 ± 0.03; CNS / BBB penetration (in words) [1]: do not penetrate the CNS; IC50 (NMDAR; read-out: IC50): 650 nM
CC(C)(C)c1ccc(C[N@+]2(C)[C@H]3Cc4ccccc4[C@]2(C)c2ccccc23)cc1,152 to 154 °C,–
CC[N@@+]1(CCCCO)[C@@H]2Cc3ccccc3[C@@]1(C)c1ccccc12,201 to 202 °C,–
C[C@]12c3ccccc3C[C@H](c3ccccc31)[N@@+]2(CCO)CC1CC1,179 to 180 °C,–
CCC[N@@+]1(CC2CC2)[C@@H]2Cc3ccccc3[C@@]1(C)c1ccccc12,203 to 204 °C,–
C[C@@]12c3ccccc3C[C@@H](c3ccccc31)[N@@+]2(C)Cc1ccccc1,220 to 222 °C,–
C[C@@]12c3ccccc3C[C@@H](c3ccccc31)[N@@+]2(C)CC1CC1 [Compound No 5],103 to 105 °C,IC50 (NMDAR): 400 nM
CC[N+]1(CC)[C@H]2Cc3ccccc3[C@]1(C)c1ccccc12,237 to 238 °C,–
C=CC[N@@+]1(CC2CC2)[C@@H]2Cc3ccccc3[C@@]1(C)c1ccccc12,131 to 132 °C,–
Cc1ccccc1C[N@+]1(C)[C@H]2Cc3ccccc3[C@]1(C)c1ccccc12,101 to 103 °C,–
CCC(C)C[N@+]1(C)[C@H]2Cc3ccccc3[C@]1(C)c1ccccc12 (stereo partly shown),181 to 184 °C,–
CC[N@@+]1(CCO)[C@H]2Cc3ccccc3[C@]1(C)c1ccccc12 [Compound No 32],115 to 120 °C,–
CCCC[N@@+]1(CCO)[C@@H]2Cc3ccccc3[C@@]1(C)c1ccccc12,196 to 197 °C,–
C[C@@]12c3ccccc3C[C@@H](c3ccccc31)[N@@+]2(C)CC1CCC1,159 to 162 °C,–
C[C@@]12c3ccccc3C[C@@H](c3ccccc31)[N@@+]2(C)CC1CCCCC1,220 to 222 °C,–
C#CC[N@@+]1(CC2CC2)[C@@H]2Cc3ccccc3[C@@]1(C)c1ccccc12,168 to 169 °C,–
C=CC[N@@+]1(CCO)[C@@H]2Cc3ccccc3[C@@]1(C)c1ccccc12,196 to 197 °C,–

Compound,melting point,other results
C#CC[N@@+]1(CCO)[C@@H]2Cc3ccccc3[C@@]1(C)c1ccccc12,201 to 202 °C,–
CC[N@+]1(C)[C@H]2Cc3ccccc3[C@]1(C)c1ccccc12 [Compound No 2],230 to 232 °C,IC50 (NMDAR): 570 nM
C[C@@]12c3ccccc3C[C@@H](c3ccccc31)[N@@+]2(C)CC1(c2ccc(Cl)cc2)CC1,162 to 164 °C,–
C[C@@]12c3ccccc3C[C@@H](c3ccccc31)[N@@+]2(C)Cc1ccccc1Cl,129 to 131 °C,–
C[C@@]12c3ccccc3C[C@@H](c3ccccc31)[N@@+]2(C)Cc1ccc(F)cc1,92 to 94 °C,–
CC(C)CC[N@+]1(C)[C@H]2Cc3ccccc3[C@]1(C)c1ccccc12,215 to 217 °C,–
C[C@@]12c3ccccc3C[C@@H](c3ccccc31)[N@@+]2(C)CCO,216 to 219 °C,–
CC(C)C[N@+]1(C)[C@H]2Cc3ccccc3[C@]1(C)c1ccccc12 [Compound No 4],216 to 217 °C,IC50 (NMDAR): 820 nM
C[C@@]12c3ccccc3C[C@@H](c3ccccc31)[N@@+]2(C)Cc1cccc(C(F)(F)F)c1,167 to 170 °C,–
C[C@@]12c3ccccc3C[C@@H](c3ccccc31)[N@@+]2(C)CC#N,147 to 149 °C,–
CC[N@@+]1(CC2CC2)[C@H]2Cc3ccccc3[C@]1(C)c1ccccc12 [Compound No 31],189 to 191 °C,IC50 (NMDAR; read-out: IC50): 270 nM
C[C@@]12c3ccccc3C[C@@H](c3ccccc31)[N@@+]2(C)Cc1ccc(Cl)cc1,160 to 162 °C,–
CC[N@@+]1(CC2CC2)[C@@H]2Cc3ccccc3[C@@]1(C)c1ccccc12,180 to 181 °C,–
CC(=O)NCC[N@+]1(C)[C@H]2Cc3ccccc3[C@]1(C)c1ccccc12,216 to 218 °C,–
CCCC[N@+]1(C)[C@H]2Cc3ccccc3[C@]1(C)c1ccccc12 [Compound No 3],200 to 203 °C,IC50 (NMDAR): 500 nM
CC[N@@+]1(CCO)[C@H]2Cc3ccccc3[C@]1(C)c1ccccc12 [Compound No 26],202 to 205 °C,Kp at 3.45 h [1]: 0.4 ± 0.08; CNS / BBB penetration (in words) [1]: do not penetrate the CNS; IC50 (NMDAR; read-out: IC50): 400 nM
C[C@@]12c3ccccc3C[C@@H](c3ccccc31)[N@@+]2(C)CC(N)=O,189 to 192 °C,–
COc1ccc(C[N@+]2(C)[C@H]3Cc4ccccc4[C@]2(C)c2ccccc23)cc1,101 to 103 °C,–
C[C@@]12c3ccccc3C[C@@H](c3ccccc31)[N@@+]2(C)CC1CCCC1 [Compound No 6],125 to 127 °C,IC50 (NMDAR): 1100 nM
Cc1ccc(C[N@+]2(C)[C@H]3Cc4ccccc4[C@]2(C)c2ccccc23)cc1,134 to 136 °C,–
CCCC[N@@+]1(CC2CC2)[C@@H]2Cc3ccccc3[C@@]1(C)c1ccccc12,171 to 172 °C,–
C[C@@]12c3ccccc3C[C@@H](c3ccccc31)[N@@+]2(C)CC1(c2ccccc2)CC1,174 to 176 °C,–
